# Laboratory results published in ChEMBL document CHEMBL4138123, “Design, synthesis and biological evaluation of novel pyrazolochalcones as potential modulators of PI3K/Akt/mTOR pathway and inducers of apoptosis in breast cancer cells” (Eur J Med Chem, 2017).
# Legend:
# Assay type in all cases: functional
# [1] = test system: K562; assay: Cytotoxicity against human K562 cells assessed as cell growth at 0.1 uM after 48 hrs by sulforhodamine B assay relative to control; details: K562, 48 h, read-out: Activity
# [2] = test system: MDA-MB-468; assay: Cytotoxicity against human MDA-MB-468 cells assessed as cell growth at 10 uM after 48 hrs by sulforhodamine B assay relative to control; details: MDA-MB-468, 48 h, read-out: Activity
# [3] = test system: M14; assay: Cytotoxicity against human M14 cells assessed as cell growth at 0.01 uM after 48 hrs by sulforhodamine B assay relative to control; details: M14, 48 h, read-out: Activity
# [4] = test system: ACHN; assay: Cytotoxicity against human ACHN cells assessed as cell growth at 10 uM after 48 hrs by sulforhodamine B assay relative to control; details: read-out: Activity
# [5] = test system: ACHN; assay: Cytotoxicity against human ACHN cells assessed as cell growth at 1 uM after 48 hrs by sulforhodamine B assay relative to control; details: read-out: Activity
# [6] = test system: NCI-H522; assay: Cytotoxicity against human NCI-H522 cells assessed as cell growth at 0.01 uM after 48 hrs by sulforhodamine B assay relative to control; details: NCI-H522, 48 h, read-out: Activity
# [7] = test system: SW-620; assay: Cytotoxicity against human SW620 cells assessed as cell growth at 10 uM after 48 hrs by sulforhodamine B assay relative to control; details: SW-620, 48 h, read-out: Activity
# [8] = test system: CCRF-CEM; assay: Cytotoxicity against human CCRF-CEM cells assessed as cell growth at 10 uM after 48 hrs by sulforhodamine B assay relative to control; details: read-out: Activity
# [9] = test system: SF-268; assay: Cytotoxicity against human SF268 cells assessed as cell growth at 1 uM after 48 hrs by sulforhodamine B assay relative to control; details: SF-268, 48 h, read-out: Activity
# [10] = test system: NCI-H23; assay: Cytotoxicity against human NCI-H23 cells assessed as cell growth at 0.1 uM after 48 hrs by sulforhodamine B assay relative to control; details: NCI-H23, 48 h, read-out: Activity
# [11] = test system: UACC-62; assay: Cytotoxicity against human UACC62 cells assessed as cell growth at 10 uM after 48 hrs by sulforhodamine B assay relative to control; details: UACC-62, 48 h, read-out: Activity
# [12] = test system: HCT-116; assay: Cytotoxicity against human HCT116 cells assessed as cell growth at 10 uM after 48 hrs by sulforhodamine B assay relative to control; details: HCT-116, 48 h, read-out: Activity
# [13] = test system: SK-MEL-5; assay: Cytotoxicity against human SK-MEL-5 cells assessed as cell growth at 1 uM after 48 hrs by sulforhodamine B assay relative to control; details: SK-MEL-5, 48 h, read-out: Activity
# [14] = test system: NCI-H522; assay: Cytotoxicity against human NCI-H522 cells assessed as cell growth at 1 uM after 48 hrs by sulforhodamine B assay relative to control; details: NCI-H522, 48 h, read-out: Activity
# [15] = test system: SNB-19; assay: Cytotoxicity against human SNB19 cells assessed as growth inhibition after 48 hrs by sulforhodamine B assay; details: SNB-19, 48 h
# [16] = test system: RPMI-8226; assay: Cytotoxicity against human RPMI8226 cells assessed as growth inhibition after 48 hrs by sulforhodamine B assay; details: RPMI-8226, 48 h
# [17] = test system: A549; assay: Cytotoxicity against human A549/ATCC cells assessed as cell growth at 100 uM after 48 hrs by sulforhodamine B assay relative to control; details: A549, 48 h, read-out: Activity
# [18] = test system: SK-MEL-5; assay: Cytotoxicity against human SK-MEL-5 cells assessed as cell growth at 0.1 uM after 48 hrs by sulforhodamine B assay relative to control; details: SK-MEL-5, 48 h, read-out: Activity
# [19] = test system: DU-145; assay: Cytotoxicity against human DU145 cells assessed as cell growth at 0.01 uM after 48 hrs by sulforhodamine B assay relative to control; details: DU-145, 48 h, read-out: Activity
# [20] = test system: NCI-H460; assay: Cytotoxicity against human NCI-H460 cells assessed as cell growth at 100 uM after 48 hrs by sulforhodamine B assay relative to control; details: NCI-H460, 48 h, read-out: Activity
# [21] = test system: SK-MEL-5; assay: Cytotoxicity against human SK-MEL-5 cells assessed as growth inhibition after 48 hrs by sulforhodamine B assay; details: SK-MEL-5, 48 h
# [22] = test system: NCI-H23; assay: Cytotoxicity against human NCI-H23 cells assessed as cell growth at 100 uM after 48 hrs by sulforhodamine B assay relative to control; details: NCI-H23, 48 h, read-out: Activity
# [23] = test system: SN12C; assay: Cytotoxicity against human SN12C cells assessed as cell growth at 100 uM after 48 hrs by sulforhodamine B assay relative to control; details: read-out: Activity
# [24] = test system: NCI-H23; assay: Cytotoxicity against human NCI-H23 cells assessed as cell growth at 10 uM after 48 hrs by sulforhodamine B assay relative to control; details: NCI-H23, 48 h, read-out: Activity
# [25] = test system: OVCAR-4; assay: Cytotoxicity against human OVCAR4 cells assessed as cell growth at 1 uM after 48 hrs by sulforhodamine B assay relative to control; details: OVCAR-4, 48 h, read-out: Activity
# [26] = test system: SW-620; assay: Cytotoxicity against human SW620 cells assessed as cell growth at 0.1 uM after 48 hrs by sulforhodamine B assay relative to control; details: SW-620, 48 h, read-out: Activity
# [27] = test system: COLO 205; assay: Cytotoxicity against human COLO205 cells assessed as cell growth at 10 uM after 48 hrs by sulforhodamine B assay relative to control; details: COLO 205, 48 h, read-out: Activity
# [28] = test system: PC-3; assay: Cytotoxicity against human PC3 cells assessed as cell growth at 0.1 uM after 48 hrs by sulforhodamine B assay relative to control; details: PC-3, 48 h, read-out: Activity
# [29] = test system: BT-549; assay: Cytotoxicity against human BT549 cells assessed as cell growth at 0.1 uM after 48 hrs by sulforhodamine B assay relative to control; details: BT-549, 48 h, read-out: Activity
# [30] = test system: NCI-H322M; assay: Cytotoxicity against human NCI-H322M cells assessed as cell growth at 0.01 uM after 48 hrs by sulforhodamine B assay relative to control; details: read-out: Activity
# [31] = test system: COLO 205; assay: Cytotoxicity against human COLO205 cells assessed as cell growth at 0.1 uM after 48 hrs by sulforhodamine B assay relative to control; details: COLO 205, 48 h, read-out: Activity
# [32] = test system: MDA-MB-231; assay: Cytotoxicity against human MDA-MB-231 cells assessed as cell growth at 10 uM after 48 hrs by sulforhodamine B assay relative to control; details: MDA-MB-231, 48 h, read-out: Activity
# [33] = test system: HCT-15; assay: Cytotoxicity against human HCT15 cells assessed as cell growth at 10 uM after 48 hrs by sulforhodamine B assay relative to control; details: HCT-15, 48 h, read-out: Activity
# [34] = test system: HL-60(TB); assay: Cytotoxicity against human HL-60(TB) cells assessed as cell growth at 100 uM after 48 hrs by sulforhodamine B assay relative to control; details: HL-60, 48 h, read-out: Activity
# [35] = test system: A549; assay: Cytotoxicity against human A549/ATCC cells assessed as cell growth at 10 uM after 48 hrs by sulforhodamine B assay relative to control; details: A549, 48 h, read-out: Activity
# [36] = test system: KM12; assay: Cytotoxicity against human KM12 cells assessed as cell growth at 0.01 uM after 48 hrs by sulforhodamine B assay relative to control; details: KM12, 48 h, read-out: Activity
structure (smiles),measurement,setting,value
COc1cc(-c2cc(/C=C/C(=O)c3ccc4c(c3)OCO4)[nH]n2)cc(OC)c1OC,growth at 0.1 µM,[1],102%
same,growth at 10 µM,[2],-88%
same,growth at 0.01 µM,[3],97%
same,growth at 10 µM,[4],-73%
same,growth at 1 µM,[5],96%
same,growth at 0.01 µM,[6],87%
same,growth at 10 µM,[7],-9%
same,growth at 10 µM,[8],-19%
same,growth at 1 µM,[9],90%
same,growth at 0.1 µM,[10],93%
same,growth at 10 µM,[11],26%
same,growth at 10 µM,[12],-60%
same,growth at 1 µM,[13],95%
same,growth at 1 µM,[14],52%
same,TGI,[15],> 100 µM
same,CC50,[15]; read-out: LC50 (the source's name),> 100 µM
same,LC50,[16],> 100 µM
same,TGI,[16],2.94 µM
same,growth at 100 µM,[17],8%
same,growth at 0.1 µM,[18],97%
same,growth at 0.01 µM,[19],104%
same,growth at 100 µM,[20],-34%
same,LC50 (concentration killing 50% of cells),[21],> 100 µM
same,TGI,[21],> 100 µM
same,growth at 100 µM,[22],20%
same,growth at 100 µM,[23],18%
same,growth at 10 µM,[24],63%
same,growth at 1 µM,[25],82%
same,growth at 0.1 µM,[26],96%
same,growth at 10 µM,[27],-66%
same,growth at 0.1 µM,[28],99%
same,growth at 0.1 µM,[29],99%
same,growth at 0.01 µM,[30],94%
same,growth at 0.1 µM,[31],101%
same,growth at 10 µM,[32],20%
same,growth at 10 µM,[33],-13%
same,growth at 100 µM,[34],-36%
same,growth at 10 µM,[35],26%
same,growth at 0.01 µM,[36],96%
